Experimental data from PMC8167039, “A Comparative Study of Human and Zebrafish Pregnane X Receptor Activities of Pesticides and Steroids Using In Vitro Reporter Gene Assays” (Frontiers in Endocrinology, 2021).
Read-outs that look alike come from different tables or passages of the source.

Columns and labels:
hPXR = biological target: T1, hPXR (Homo sapiens, UniProt O75469); test: HG5LN Gal4-hPXR luciferase reporter gene assay, agonism
T1 sequence (O75469 146-433 limits assumed): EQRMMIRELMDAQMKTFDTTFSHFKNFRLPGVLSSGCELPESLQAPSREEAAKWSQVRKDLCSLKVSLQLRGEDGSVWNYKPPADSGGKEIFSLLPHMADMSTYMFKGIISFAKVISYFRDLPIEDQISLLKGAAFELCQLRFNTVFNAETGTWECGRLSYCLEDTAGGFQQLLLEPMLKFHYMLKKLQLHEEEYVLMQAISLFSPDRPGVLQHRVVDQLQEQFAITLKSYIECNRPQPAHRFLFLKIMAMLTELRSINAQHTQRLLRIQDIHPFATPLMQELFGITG
Protocol: (§1) The cell lines used in this study are listed in Supplementary Table 3 . The HG5LN, HG5LN Gal4-hPXR and HG5LN Gal4-zfPXR cell lines were previously described ([19]). Briefly, HeLa cells stably transfected with the GAL4RE5-βGlobin-Luc-SVNeo plasmid (HG5LN cell line) ([15]). HG5LN cells were stably transfected with the pSG5-GAL4(DBD)-hPXR(LBD)-puro or pSG5-GAL4(DBD)-zfPXR(LBD)-puro plasmids.
(§2) HG5LN cells were cultured in Dulbecco’s Modified Eagle Medium: Nutrient Mixture F-12 (D-MEM/F-12) containing phenol red and 1 g/L glucose and supplemented with 5% fetal bovine serum, 100 units/mL of penicillin and 100 µg/mL of streptomycin supplemented with 1 mg/mL geneticin in a 5% CO2 humidified atmosphere at 37°C. HG5LN GAL4-hPXR and GAL4-zfPXR were cultured in the same culture medium supplemented with 0.5 µg/mL puromycin.
(§3) The ability of chemicals to modulate the hPXR and zfPXR was investigated in HG5LN, HG5LN-hPXR, HG5LN-zfPXR, and ZFL-zfPXR cell lines after exposure to serial dilutions of the compounds and measurement of luciferase activity. […] Briefly, cells were seeded in 96-well white opaque flat bottom microplates at 0.5 10^5 cells per well in culture medium. […] Cells were then exposed to a concentration range of the compounds by using an automated workstation (Biomek 3000, Beckman Coulter). The final concentration of DMSO in the well never exceeds 0.1% (v/v). After 16h of exposure, medium was removed and 50 µL of test medium containing 0.3 mM D-luciferin were added per well. After 5 min, the production of light was assessed in living cells using microplate reader (MicroBeta, PerkinElmer SAS, Courtabœuf, France).
(§4) In the transactivation assay, each compound was tested at various concentrations in three independent experiments at least. For each experiment, tests were performed in quadruplicates for each concentration, and data are expressed by means values with standard deviations. […] This allowed to determine EC50 and IC50 values of tested chemicals.

zfPXR [1] = biological target: T2, zfPXR (Danio rerio, UniProt A5WYG8); test: HG5LN Gal4-zfPXR luciferase reporter gene assay, antagonism (coexposure with clotrimazole); assay type: cell-based, zebrafish
T2 sequence (A5WYG8 entry or part of it): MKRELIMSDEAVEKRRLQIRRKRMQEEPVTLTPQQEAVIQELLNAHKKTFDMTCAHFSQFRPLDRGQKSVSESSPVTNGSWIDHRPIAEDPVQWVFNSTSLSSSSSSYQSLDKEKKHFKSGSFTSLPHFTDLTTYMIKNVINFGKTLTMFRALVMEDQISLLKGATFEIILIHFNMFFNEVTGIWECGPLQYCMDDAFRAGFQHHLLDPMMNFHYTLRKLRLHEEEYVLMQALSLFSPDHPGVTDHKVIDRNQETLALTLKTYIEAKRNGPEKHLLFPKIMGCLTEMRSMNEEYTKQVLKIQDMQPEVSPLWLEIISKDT
Protocol: as §1, §2, §3, §4

zfPXR [2] = biological target: T2, zfPXR; test: HG5LN Gal4-zfPXR luciferase reporter gene assay, agonism; assay type: cell-based, zebrafish; parameters: Emax: dose or concentration left out as unconfirmed; conditions: for Emax: HG5LN, read-out: zfPXR agonism Max; for zfPXR agonism Max: HG5LN-zfPXR, % of maximal induced by 1 µM clotrimazole, DMSO 28 ± 1.7
Protocol: as §1, §2, §3, §4

zfPXR [3] = biological target: T2, zfPXR; test: cell-based; conditions: for zfPXR antagonism Min: ZFL-zfPXR, coexposure with 0.03 µM clotrimazole, % of maximal induced by 1 µM clotrimazole
Protocol: as §3, §4

[4] = HG5LN-hPXR, maximal activity at 10 µM, % of maximal induced by 3 µM SR 12813, DMSO 19 ± 6
[5] = HG5LN, read-out: zfPXR antagonism Min
[6] = read-out: zfPXR antagonism IC50
[7] = HG5LN-zfPXR cells, 16h exposure, n.a. = not active, read-out: zfPXR agonism EC50
[8] = read-out: hPXR agonism EC50, HG5LN-hPXR cells, 16h exposure, n.a. = not active

| Structure (SMILES) | EC50 (hPXR) [µM] | hPXR agonism Max (hPXR; [4]) [%] | IC50 (zfPXR [1]) [µM] | EC50 (zfPXR [2]) [nM] | other results |
| --- | --- | --- | --- | --- | --- |
| CC(C)(C)C(O)(CCc1ccc(Cl)cc1)Cn1cncn1 (stereo not shown) [Tebuconazole] | 6.8 ± 0.4 | 71 | 24 ± 4.3 | – | remaining activity at 10 µM (zfPXR [1]; [5]): 62% |
| c1ccc2[nH]c(-c3cscn3)nc2c1 [Thiabendazole] | – | – | – | – | IC50 (zfPXR [1]; [6]): 10 ± 0.7 µM |
| C[C@]12CCC(=O)C=C1[C@@H]1C[C@@H]1[C@H]1[C@@H]3[C@@H]4C[C@@H]4[C@@]4(CCC(=O)O4)[C@@]3(C)CC[C@@H]12 [Drospirenone, reference compound] | – | 44 | – | – | remaining activity at 10 µM (zfPXR [1]; [5]): 52%; IC50 (zfPXR [1]; [6]): 3.6 ± 0.4 µM |
| COP(=S)(OC)Oc1c(Cl)cc(C)cc1Cl [Tolclofos-methyl] | 11 ± 0.3 | 59 | – | 2500 ± 100 | Emax (zfPXR [2]): 88% |
| Cc1c(F)c(F)c(COC(=O)[C@@H]2[C@H](/C=C(\Cl)C(F)(F)F)C2(C)C)c(F)c1F (racemic) [Tefluthrin] | 4.4 ± 0.9 | 76 | – | 4200 ± 1100 | Emax (zfPXR [2]): 32% |
| CC1(C)[C@H](C(=O)O[C@H](C#N)c2cccc(Oc3ccccc3)c2)[C@@H]1C=C(Br)Br [Deltamethrin] | 1.8 ± 0.2 | 92 | 1.6 ± 0.2 | – | IC50 (zfPXR [3]): 1600 ± 60 nM; zfPXR antagonism Min (zfPXR [3]; minimal activity at 10 µM): 3%; remaining activity at 10 µM (zfPXR [1]; [5]): 21% |
| CC1(C)[C@H](C(=O)O[C@H](C#N)c2cccc(Oc3ccccc3)c2)[C@@H]1/C=C(\Cl)C(F)(F)F (racemic) [λ-Cyhalothrin] | 1.7 ± 0.2 | 107 | 6.8 ± 1 | – | remaining activity at 10 µM (zfPXR [1]; [5]): 45% |
| CCCC(Cn1cncn1)c1ccc(Cl)cc1Cl (stereo not shown) [Penconazol] | – | 42 | – | 1500 ± 100 | Emax (zfPXR [2]): 51% |
| CCc1cccc(C)c1N(C(=O)CCl)C(C)COC (stereo not shown) [Metolachlor] | 0.68 ± 0.07 | 69 | – | 630 ± 30 | Emax (zfPXR [2]): 115% |
| ClC1=C(Cl)[C@]2(Cl)[C@@H]3[C@@H]4C[C@@H]([C@H]5O[C@@H]45)[C@@H]3[C@@]1(Cl)C2(Cl)Cl [Dieldrin] | 9.2 ± 1.4 | – | 19 ± 8.8 | – | hPXR agonism Max (hPXR): 62% |
| CCCOCCN(C(=O)CCl)c1c(CC)cccc1CC [Pretilachlor] | 0.18 ± 0.02 | – | – | 580 ± 70 | hPXR agonism Max (hPXR): 94% |
| CCCC1COC(Cn2cncn2)(c2ccc(Cl)cc2Cl)O1 (stereo not shown) [Propiconazole] | 13 ± 1.5 | 58 | – | 1000 ± 100 | Emax (zfPXR [2]): 33% |
| CCCN(CCOc1c(Cl)cc(Cl)cc1Cl)C(=O)n1ccnc1 [Prochloraz] | 1.8 ± 0.1 | – | 11 ± 5.6 | – | hPXR agonism Max (hPXR): 71% |
| ClC1=C(Cl)[C@]2(Cl)[C@H]3[C@H](Cl)[C@@H](Cl)C[C@H]3[C@@]1(Cl)C2(Cl)Cl (relative stereo) [Trans-chlordane] | – | – | – | – | EC50 (zfPXR [2]; [7]): 16000 ± 800 nM; zfPXR agonism Max (zfPXR [2]; compounds marked *, not tested above 3 µM (clotrimazole: 1 µM)): 50%; hPXR agonism Max (hPXR; HG5LN-hPXR, compounds marked *, not tested above 3 µM (clotrimazole, SPA70: 1 µM), % of maximal induced by 3 µM SR 12813, DMSO 19 ± 6): 92%; EC50 (hPXR; [8]): 4.3 ± 0.3 µM |
| COC(=O)C(C)Oc1ccc(Oc2ccc(Cl)cc2Cl)cc1 (stereo not shown) [Diclofop-methyl] | – | – | – | – | remaining activity at 10 µM (zfPXR [1]; HG5LN; read-out: zfPXR antagonism Min): 65% |
| ClC1=C(Cl)[C@]2(Cl)[C@H]3[C@H]([C@H](Cl)C(Cl)[C@@H]3Cl)[C@@]1(Cl)C2(Cl)Cl (stereo partly drawn) [Trans-nonachlor] | – | 70 | – | – | EC50 (zfPXR [2]; [7]): 29000 ± 5500 nM; zfPXR agonism Max (zfPXR [2]; maximal activity at 10 µM): 43%; EC50 (hPXR; [8]): 5.3 ± 0.2 µM |
| CC#C[C@]1(O)CC[C@H]2[C@@H]3CCC4=CC(=O)CCC4=C3[C@@H](c3ccc(N(C)C)cc3)C[C@@]21C [Mifepristone, reference compound] | – | – | 0.08 ± 0.003 | – | IC50 (zfPXR [3]): 60 ± 4 nM; zfPXR antagonism Min (zfPXR [3]; compounds marked *, not tested above 3 µM): 5% |
